Data published in US20080009511A1, “Cancer treatment with compounds inhibiting PKC alpha” (priority 2004, published 2008).

Legend:
[1] = tested on: U251 human glioma cells; test: Cell viability assay (trypan blue dye exclusion), viable cells counted at day 6; assay type: cell-based; conditions: 10 micromoles; for Treated (cell number × 10^5): about 4×10^4 cells seeded, untreated 9.6 ± 0.5; for % inhibiton: growth vs untreated
Protocol: (§1) The following cancer cells were maintained in Dulbecco's modified Eagle medium (DMEM) supplemented with 10 percent bovine calf serum. Cells were seeded for 24 hours. Then they were treated with PKC inhibitors or left untreated. The cells were then collected periodically and evaluated using trypan blue dye exclusion to assess viability using the method described by C Y Chen, et al., in J. Biol. Chem. 273:16700-16709. Cultures containing about 4×10^4 cells were treated with 5 micromoles of Gö7874 (except that PC3 prostate cancer cells were treated with 10 micromoles) and the viable cells were counted at day 6. […] Cultures containing about 4×10^4 cells were treated with or without 10 micromoles of Gö6850 and the viable cells were counted at day 6. […] Cultures containing about 4×10^4 cells were treated with or without 10 micromoles of NGIC-I and the viable cells were counted at day 6. […] Cultures containing about 4×10^4 cells were treated with or without 10 micromoles of Ro31-7549 and the viable cells were counted at day 6. […] Cultures containing about 4×10^4 cells were treated with or without 10 micromoles of Ro31-8220 and the viable cells were counted at day 6. […] Cultures containing about 4×10^4 cells were treated with or without 10 micromoles of Ro31-8425 and the viable cells were counted at day 6. […] Cultures containing about 4×10^4 cells were treated with or without 10 micromoles of Ro31-0432 and the viable cells were counted at day 6.

[2] = tested on: Hela human cervical cancer cells; test: as above; assay type: cell-based; conditions: 10 micromoles; for Treated (cell number × 10^5): about 4×10^4 cells seeded, untreated 3.4 ± 0.4; for % inhibiton: growth vs untreated
Protocol: as §1

[3] = tested on: HepG2 human liver cancer cells; test: as above; assay type: cell-based; conditions: 10 micromoles; for Treated (cell number × 10^5): about 4×10^4 cells seeded, untreated 4.2 ± 0.4; for % inhibiton: growth vs untreated
Protocol: as §1

[4] = tested on: PANC-1 human pancreatic carcinoma cells; test: as above; assay type: cell-based; conditions: 10 micromoles; for Treated (cell number × 10^5): about 4×10^4 cells seeded, untreated 2.1 ± 0.3; for % inhibiton: growth vs untreated
Protocol: as §1

[5] = tested on: AGS human gastric cancer cells; test: as above; assay type: cell-based; conditions: 10 micromoles; for Treated (cell number × 10^5): about 4×10^4 cells seeded, untreated 2.4 ± 0.3; for % inhibiton: growth vs untreated
Protocol: as §1

[6] = tested on: PC3 human prostate cancer cells; test: as above; assay type: cell-based; conditions: 10 micromoles; for Treated (cell number × 10^5): about 4×10^4 cells seeded, untreated 7.1 ± 0.3; for % inhibiton: growth vs untreated
Protocol: as §1

[7] = tested on: NBT-II human bladder cancer cells; test: as above; assay type: cell-based; conditions: 10 micromoles; for Treated (cell number × 10^5): about 4×10^4 cells seeded, untreated 2.9 ± 0.4; for % inhibiton: growth vs untreated
Protocol: as §1

[8] = tested on: H460 human lung cancer cells; test: as above; assay type: cell-based; conditions: 10 micromoles; for Treated (cell number × 10^5): about 4×10^4 cells seeded, untreated 2.4 ± 0.2; for % inhibiton: growth vs untreated
Protocol: as §1

[9] = tested on: HT29 human colon cancer cells; test: as above; assay type: cell-based; conditions: 10 micromoles; for Treated (cell number × 10^5): about 4×10^4 cells seeded, untreated 3.8 ± 0.4; for % inhibiton: growth vs untreated
Protocol: as §1

[10] = tested on: Jurkat cells (a human acute T-cell leukemia cell line); test: as above; assay type: cell-based; conditions: 10 micromoles; for Treated (cell number × 10^5): about 4×10^4 cells seeded, untreated 8.8 ± 0.4; for % inhibiton: growth vs untreated
Protocol: as §1

[11] = tested on: A431 human epidermoid carcinoma cells; test: as above; assay type: cell-based; conditions: 10 micromoles; for Treated (cell number × 10^5): about 4×10^4 cells seeded, untreated 5.4 ± 0.4; for % inhibiton: growth vs untreated
Protocol: as §1

[12] = tested on: MDA-MB-468 human breast cancer cells; test: as above; assay type: cell-based; conditions: 10 micromoles; for % inhibiton: growth vs untreated
Protocol: as §1

[13] = tested on: human cancer cells; test: Cell viability assay, summary over the panel of cancer cells; assay type: cell-based; conditions: 10 micromoles; day 6; cell lines not named as going to apoptosis
Protocol: The following cancer cells were maintained in Dulbecco's modified Eagle medium (DMEM) supplemented with 10 percent bovine calf serum. Cells were seeded for 24 hours. Then they were treated with PKC inhibitors or left untreated. The cells were then collected periodically and evaluated using trypan blue dye exclusion to assess viability using the method described by C Y Chen, et al., in J. Biol. Chem. 273:16700-16709. Cultures containing about 4×10^4 cells were treated with or without 10 micromoles of Gö6850 and the viable cells were counted at day 6. […] Cultures containing about 4×10^4 cells were treated with or without 10 micromoles of NGIC-I and the viable cells were counted at day 6. […] Cultures containing about 4×10^4 cells were treated with or without 10 micromoles of Ro31-7549 and the viable cells were counted at day 6. […] Cultures containing about 4×10^4 cells were treated with or without 10 micromoles of Ro31-8220 and the viable cells were counted at day 6. […] Cultures containing about 4×10^4 cells were treated with or without 10 micromoles of Ro31-8425 and the viable cells were counted at day 6. […] Cultures containing about 4×10^4 cells were treated with or without 10 micromoles of Ro31-0432 and the viable cells were counted at day 6.

[14] = tested on: KB oral cancer cells; test: Cell viability assay (trypan blue dye exclusion), viable cells counted at day 6; assay type: cell-based, human; conditions: 10 micromoles; for Treated (cell number × 10^5): about 4×10^4 cells seeded, untreated 3.8 ± 0.4; for % inhibiton: growth vs untreated
Protocol: as §1

Row | Compound | Treated (cell number × 10^5) [1] | % inhibiton [1] [%] | Treated (cell number × 10^5) [2] | % inhibiton [2] | Treated (cell number × 10^5) [3] | % inhibiton [3] [%] | Treated (cell number × 10^5) [4] | % inhibiton [4] | Treated (cell number × 10^5) [5] | % inhibiton [5] | Treated (cell number × 10^5) [6] | % inhibiton [6] [%] | Treated (cell number × 10^5) [7] | % inhibiton [7] | Treated (cell number × 10^5) [8] | % inhibiton [8] [%] | Treated (cell number × 10^5) [9] | % inhibiton [9] [%] | Treated (cell number × 10^5) [10] | % inhibiton [10] [%] | also measured
1 | CN(C)CC1CCn2c(c(C3=C(c4cn(C)c5ccccc45)C(=O)NC3=O)c3ccccc32)C1.Cl (centres unmarked) [Ro31-0432] | 9.2 × 10^5 | 10 | 1.3 × 10^5 | 60% | 2.4 × 10^5 | 43 | 1.2 ± 0.1 × 10^5 | 31% | 1.7 × 10^5 | 30% | 6.0 × 10^5 | 15 | 2.3 × 10^5 | 19% | 1.3x ± × 10^5 | 48 | 3.0 × 10^5 | 19 | 1.4 × 10^5 | 81 | Treated (cell number × 10^5) [11]: 4.2 × 10^5; % inhibiton [11]: 21%; % inhibiton [12]: 30%; inhibition of growth in contrast to untreated cells, range over the other treated cancer cells [13]: 10-60%; Treated (cell number × 10^5) [14]: 2.1 × 10^5; % inhibiton [14]: 44%
2 | Cn1cc(C2=C(c3cn(CCCSC(=N)N)c4ccccc34)C(=O)NC2=O)c2ccccc21 [Ro31-8220] | 1.4 × 10^5 | 85 | 6.0 × 10^5 | * (indicates the inhibitor causes significant cell death, and cell number is less than originally seeded cell number.) | 0.4 × 10^5 | 90 | 0 × 10^5 | * (indicates the inhibitor causes significant cell death, and cell number is less than originally seeded cell number.) | 0 × 10^5 | * (indicates the inhibitor causes significant cell death, and cell number is less than originally seeded cell number.) | 2.7 × 10^5 | 62 | 0 × 10^5 | * (indicates the inhibitor causes significant cell death, and cell number is less than originally seeded cell number.) | 0.4 × 10^5 | 85 | 0.6 × 10^5 | 85 | 0.5 × 10^5 | 94 | cells that went to apoptosis upon treatment [2]: significant number; cells that went to apoptosis upon treatment [4]: all; cells that went to apoptosis upon treatment [5]: all; cells that went to apoptosis upon treatment [7]: all; Treated (cell number × 10^5) [11]: 2.1 × 10^5; % inhibiton [11]: 60%; cells that went to apoptosis upon treatment [12]: significant number; Treated (cell number × 10^5) ([12]; about 4×10^4 cells seeded, untreated 6.1 ± 0.4): 0.2 ± 0.05 × 10^5; % inhibiton [12]: * (indicates the inhibitor causes significant cell death, and cell number is less than originally seeded cell number.); inhibition of growth in contrast to untreated cells, range over the other treated cancer cells [13]: 60-94%; cells that went to apoptosis upon treatment [14]: all; Treated (cell number × 10^5) [14]: 0 × 10^5; % inhibiton [14]: * (indicates the inhibitor causes significant cell death, and cell number is less than originally seeded cell number.)
